Results from patent publication US6083932A, “Pharmaceutical compositions derived from ginseng and methods of treatment using same” (CV Technologies Inc., priority 1998, dated 2000).
Where “and” joins values, the source holds several entries; their conditions need not be identical. Equal entries are not always repeated. Entries after “also recorded” stand apart in the source; their conditions may differ.

Assays:
[1] = tested on: choline uptake into synaptosomes, hippocampus; assay: choline uptake into synaptosomes from rat hippocampus; format: biochemical; settings: 1 × 10^-6M, n = 10, 1 µM
Source text: We also studied the effects of HT1001 on choline uptake in synaptosomes.
We have examined choline uptake in synaptosome preparations from whole brain and hippocampus in the presence of Rb1, HT1001 and HC3.

T type calcium channel = T type calcium channel currents in N1E115 neuroblastoma cells (whole-cell patch-clamp); format: cell-based, mouse; settings: same concentration (100 μM); N1E-115 cells
Description: (§1) A study of the effects of HT1001 and some pure ginsenosides on calcium channel activity in cultured neuroblastoma cells was conducted.
(§2) Neuroblastoma Cell Culture. Mouse neuroblastoma cells (N1E115) were cultured in Dulbecco's modified Eagle's medium (GIBCO) containing 10% fetal bovine serum at 37° C. in a humidified atmosphere of 5% CO2 in air. The medium was changed every 3-4 days. After mechanical agitation, 3×10^4 cells were replanted in 35 mm tissue culture dishes containing 4 ml of bath solution. After cell attachment, the dish was mounted on the stage of an inverted phase-contrast microscope (Nikon) for Ca^2+ channel current recording. These cells expressed predominately T channel currents. In experiments where L channels were specifically sought, the cells were grown and maintained at confluence for 3-4 weeks under the same culture conditions with the addition of 2% (vol/vol) dimethyl sulfoxide. Three to five days before use, the cells were replanted with the same medium. These cells expressed predominately L channel currents. […]
(§3) Ca^2+ Channel Current Recording in Neuroblastoma Cells. […] Since the peak currents measured with 20 mM Ba^2+ as the charge carrier were usually small (about 200 pA) the series resistance compensation was not usually employed. […] For every single-cell recording, stable readings were first obtained for 5 min; the drug was then added to the bath solution. […]

L type calcium channel = L type calcium channel currents in N1E115 neuroblastoma cells (whole-cell patch-clamp); format: cell-based, mouse; settings: same concentration (100 μM); N1E-115 cells
Description: as §1, §2, §3

rats = settings: rat, in vivo; cited from earlier work
[2] = tested on: choline uptake into synaptosomes, whole brain; settings: Benishin 1992 / previously demonstrated; cited from earlier work
[3] = tested on: ACh in the cortical and hippocampal regions of the brain; settings: U.S. Pat. No. 5,137,878; cited from earlier work
5-hydroxytryptamine = settings: rat and mouse brain; Zhang et al 1990; cited from earlier work

Compound	choline uptake, Rb1 [1]	effect on T type calcium channel currents (T type calcium channel)	effect on L type calcium channel currents (L type calcium channel)	learning and memory (literature) (rats)	choline uptake (literature) [2]	availability of ACh [3]	symptoms of Alzheimer-type senile dementia [3]	levels of 5-hydroxytryptamine and 5-hydroxyindoleacetic acid (5-hydroxytryptamine)
CC(C)=CCC[C@](C)(O[C@@H]1O[C@H](CO[C@@H]2O[C@H](CO)[C@@H](O)[C@H](O)[C@H]2O)[C@@H](O)[C@H](O)[C@H]1O)[C@H]1CC[C@]2(C)[C@@H]1[C@H](O)C[C@@H]1[C@@]3(C)CC[C@H](O[C@@H]4O[C@H](CO)[C@@H](O)[C@H](O)[C@H]4O[C@@H]4O[C@H](CO)[C@@H](O)[C@H](O)[C@H]4O)C(C)(C)[C@@H]3CC[C@]12C [Rb1, ginsenoside Rb1]	126 % control and 111 % control and 125 % control	significant inhibitory effect; also recorded: inhibitory effects	significant inhibitory effect; also recorded: inhibitory effects	enhance learning and memory	increase choline uptake	enhance the availability of ACh	alleviate the symptoms of Alzheimer-type senile dementia	decrease the levels
CC(C)=CCC[C@](C)(O[C@@H]1O[C@H](CO)[C@@H](O)[C@H](O)[C@H]1O)[C@H]1CC[C@]2(C)[C@@H]1[C@H](O)C[C@@H]1[C@@]3(C)CC[C@H](O)C(C)(C)[C@@H]3[C@@H](O[C@@H]3O[C@H](CO)[C@@H](O)[C@H](O)[C@H]3O)C[C@]12C [Rg1, ginsenoside Rg1]	–	significant inhibitory effect; also recorded: inhibitory effects	significant inhibitory effect; also recorded: inhibitory effects	–	–	enhance the availability of ACh	alleviate the symptoms of Alzheimer-type senile dementia	decrease the levels
